According to PMC4729491, “The Cellular Thioredoxin-1/Thioredoxin Reductase-1 Driven Oxidoreduction Represents a Chemotherapeutic Target for HIV-1 Entry Inhibition” (PLoS ONE, 2016):

Experiments:
[1] = target: T1, HIV-1 reverse transcriptase (Human immunodeficiency virus type 1 group M subtype B, UniProt P04585); parameters: method as in PMID 1376314; conditions: template poly rC.dG versus other templates ref 38; cited from earlier work
HIV-1 [2] = experiment: Infectivity assay in TZM-bl cells (luciferase); conditions: 40 h
Description: TZM-bl cells (1 x 10^5) were infected with diluted virus suspension (see virus expression) in a total volume of 0.2 ml DMEM medium in the presence of the compounds or an inhibitor control (nevirapine). After 40 h at 37°C, the luminescence was assayed and quantified in a Luminoskan Ascent (Thermo Labsystems, Schwerte, Germany) for luciferase activity using the OneGlo luciferase assay system (Promega, Nacka, Sweden).

[3] = target: T1, HIV-1 reverse transcriptase; experiment: Reverse transcriptase inhibition (Lenti RT Activity kit); assay type: biochemical; conditions: 25 μM; poly-A template, overnight
Description: The ability of the compounds to inhibit the activity of viral RT was determined by a Lenti RT Activity kit (Cavidi, Uppsala, Sweden) according to the manufacturer’s instructions. A poly-A-coated plate was incubated with the reaction bufferfor up to 1 h at 33°C. Then, a mixture of the virus preparation (see virus expression) and 25 μM of the test compounds or an inhibitor control (nevirapin) were added to the RT assay mixture and incubated overnight at 33°C. The plate was washed, exposed to the provided tracer for 90 min at 33°C and washed again, before the provided substrate was added to quantify the RT reaction that took place. The plate was incubated in the dark for 30 min and subsequently read at 405 nm in a Labsystem Multiskan RC (Artisan Technology Group, Champaign, IL, USA).

HeLa cells = experiment: Cytostatic activity assay, HeLa cells; assay type: cell-based; conditions: Homo sapiens, 72 h, read-out: IC50 HeLa
Description: (§1) The cytostatic activity assay using transformed cell lines was also performed in 96-well microtiter plates. 5–7.5 x 10^4 human CD4^+ T-lymphocyte CEM or human cervix carcinoma HeLa cells and a given amount of the test compounds were added to each well. The cells were allowed to proliferate for 72 h (96 h for HeLa) at 37°C in a humidified CO2-controlled atmosphere. At the end of the incubation period, the cells were counted in a Coulter counter (type ZM, Coulter Electronics, Analis, Ghent, Belgium).

HIV-1 [4] = experiment: Infectivity (TZM-bl) of virus particles produced by ACH-2 cells in presence of compound; assay type: cell-based; conditions: compound added at 1/100 of concentration in viral growth culture
Description: To measure the infectivity of particles produced in the presence of the compounds, washed persistently HIV-1-infected ACH-2 cells (1 x 10^6 cells/ml) were cultured with 100 nM PMA in the presence of the indicated concentration of compounds. After 3 days, the p24 content of the clarified supernatant (see virus expression) was measured. The cell supernatant was then used for an infectivity test (see infectivity assay) without the further addition of any compound to the cultures. The final dilution of the ACH-2 supernatant in the infectivity test was 1:100. A control experiment was performed, in which virus particles produced without the addition of compound, were used for the infectivity test. Additionally, the same amount of compound that could have been carried over with the virus containing supernatant in the original experiment was added to the infectivity test (final concentration: 1/100 of the indicated amount in the viral growth culture).

[5] = tested on: HuT-78/HIV-1 and Sup-T1 cells; experiment: cells; assay type: cell-based
Description: Persistently infected HuT-78/HIV-1 cells were thoroughly washed to eliminate free virions. Next, 1 x 10^5 HuT-78/HIV-1 cells were co-cultivated with 1 x 10^5 Sup-T1 cells in 96-well plates (200 μl/well) during 20 h at 37°C, in the presence or absence of a serial dilution of compound. Afterwards, the formation of syncytia was evaluated microscopically. The EC50 was defined as the compound concentration required to suppress syncytia formation by 50%.

HIV-1 protease [6] = target: T2, HIV-1 protease (Human immunodeficiency virus type 1 group M subtype B, UniProt P04585); experiment: HIV-1 protease inhibition (SensoLyte 520 kit); assay type: biochemical; conditions: 25 μM
T2 construct: the virus-encoded protease; endogenous in cells; host or cells: persistently infected HuT-78/HIV-1(IIIB) cells and released virus particles
Description: The ability of the compounds to inhibit the activity of recombinant HIV-1 protease was determined by a SensoLyte 520 HIV-1 protease assay kit (AnaSpec Inc., Fremont, CA) according to the manufacturer’s instructions. Compounds (10 μl of a 250 μM, solution, giving a final concentration of 25 μM in the reaction mixture) and 40 μl HIV-1 protease (100 ng/well; AnaSpec Inc.) were added to a dark-bottom 96-well plate. Pepstatin A was included as an inhibitor control. The plate as well as the HIV-1 protease substrate solution (provided) were incubated for 15 minutes at 37°C and 50 μl protease substrate was added to all wells. The fluorescence was measured at Ex/Em = 490 nm/520 nm with a Varioskan Flash (Thermo Electron Corporation, Schwerte, Germany).

HIV-1(IIIB) [7] = experiment: microbe, parasite or virus in culture; assay type: cell-based; conditions: for EC50: Human immunodeficiency virus 1, IIIB, CCRF-CEM
Description: (§2) To study the antiviral activity in transformed cells, CEM cells were suspended in fresh culture medium and infected with HIV-1(IIIB) or HIV-2(ROD) at 100 x CCID50 (cell culture infective dose 50%) per ml of cell suspension. Infected cell suspension (100 μl; 3 x 10^5 cells/ml) was transferred to a 96-well microplate, mixed with 100 μl of the appropriate dilutions of compounds, and further incubated at 37°C. After 4 days, giant cell formation was recorded microscopically and the number of giant cells was estimated microscopically as percentage of the number of giant cells present in the non-treated virus-infected cell cultures.

[8] = previously known structural properties ref 20-22; cited from earlier work
HIV-1(IIIB) [9] = experiment: Antiviral activity in PHA-stimulated PBMCs (p24 ELISA), HIV-1(IIIB); assay type: cell-based; conditions: Human immunodeficiency virus 1, IIIB, PBMC, read-out: EC50 HIV-1 (IIIB)
Description: (§3) To test the antiviral activity in fresh, PHA-stimulated PBMCs, an experiment was performed as previously described. Briefly, the cells were preincubated with HIV-1(IIIB), HIV-1(BaL) or HIV-1(HE) for 1 h at 37°C, using a viral load of 1000 x CCID50 per ml. Then, cell suspensions containing virus and 2 x 10^5 PBMCs were seeded in a 96-well microtiter plate and a serial dilution of compound was added, in a total volume of 200 μl. After 4 days, the cells were passaged and fresh culture medium, containing IL-2 and compound, was added. Three days later, cellular supernatants were harvested and viral replication in the presence of the compounds was quantified using a p24 enzyme-linked immunosorbent assay (ELISA) (Perkin Elmer, Brussels, Belgium). The half maximal effective concentration (EC50) was defined as the compound concentration that is required to block viral replication by 50%.

HIV-2(ROD) = experiment: Inhibition of HIV-2(ROD)-induced giant cell formation in CEM cell cultures; assay type: cell-based
Description: as §2

PHA-stimulated PBMCs = experiment: Toxicity in PHA-stimulated PBMCs (trypan blue cell counting); assay type: cell-based, human; conditions: Homo sapiens, PBMC, 168 h, read-out: IC50 PBMC
Description: A similar experiment was performed to study the toxicity of the compounds in fresh, PHA-stimulated, PBMCs. Mock-infected PBMCs (2 x 10^5 cells) were exposed to a serial dilution of compound, in a total volume of 200 μl. Cells were passaged after 4 days. Cell survival and proliferation was assessed at day 7 using trypan blue-based cell counting with the Countess Automated Cell Counter (Invitrogen, Ghent, Belgium). The IC50 was defined as the concentration of the compound that inhibited cell proliferation by 50%.

HIV-1(BaL) = experiment: Antiviral activity in PHA-stimulated PBMCs (p24 ELISA), HIV-1(BaL); assay type: cell-based; conditions: Human immunodeficiency virus 1, BAL, PBMC, read-out: EC50 HIV-1 (BAL)
Description: as §3

CEM cells = experiment: Cytostatic activity assay, CEM cells; assay type: cell-based; conditions: Homo sapiens, CCRF-CEM, 72 h; inhibition of cell proliferation by 50%, three-day drug-exposed; mean ± SD
Description: as §1

HIV-1 protease [10] = target: T2, HIV-1 protease; experiment: p55 cleavage in virus particles from HuT-78/HIV-1 cells (Western blot); assay type: cell-based; conditions: 43 h, AZT 3.7 μM, ritonavir 2.8 μM, TE-10 1 and 20 μM
Description: In order to confirm the inhibitory effect of TE-10, an additional assay was performed to study the inhibition of the HIV-1 protease by TE-10. Therefore, 2 x 10^5 persistently infected HuT-78/HIV-1 cells were washed thoroughly and seeded in 48-well plates, in the presence or absence of compound. As reference compounds, the RT inhibitor AZT (3.7 μM) and the protease inhibitor ritonavir (2.8 μM) were used, as negative and positive controls, respectively. TE-10 was used at 1 μM and 20 μM. After 43 h of incubation at 37°C, virus-containing cell culture supernatants were harvested and the cells were removed by centrifugation (10 min at ± 900 x g). Then, virus was precipitated from the cell supernatant by centrifugation at ± 3.5 x 10^4 x g for at least 2 h. The viruses were resuspended in PBS and lysed with Triton-X100 (Sigma-Aldrich, Diegem, Belgium). These viral lysates were then subjected to SDS-PAGE and subsequent Western blotting to detect the presence of p24 and its precursor p55, using an anti-p24 antibody (AB9044; final concentration 2.4 μg/ml).

HIV-1(HE) = experiment: Antiviral activity in PHA-stimulated PBMCs (p24 ELISA), HIV-1(HE); assay type: cell-based; conditions: Human immunodeficiency virus 1, PBMC, read-out: EC50 HIV-1 (HE)
Description: as §3

HIV = tested on: HIV; parameters: method as in PMID 8895167; conditions: cited from earlier work
TrxR1 = target: T3, TrxR1 (Homo sapiens, UniProt Q16881); experiment: Inhibition of TrxR1-dependent reduction of HIV-1 gp120 (ELISA); assay type: biochemical; conditions: 100 μM compound; 1 μM Trx1 + 100 nM TrxR1 + 240 μM NADPH; control without compound 38–54%
T3 construct: purchased IMCO Corporation (Stockholm, Sweden) or Sino Biological Inc (Zoersel, Belgium)
T3 sequence (Q16881 1-499 isoform Q16881-5): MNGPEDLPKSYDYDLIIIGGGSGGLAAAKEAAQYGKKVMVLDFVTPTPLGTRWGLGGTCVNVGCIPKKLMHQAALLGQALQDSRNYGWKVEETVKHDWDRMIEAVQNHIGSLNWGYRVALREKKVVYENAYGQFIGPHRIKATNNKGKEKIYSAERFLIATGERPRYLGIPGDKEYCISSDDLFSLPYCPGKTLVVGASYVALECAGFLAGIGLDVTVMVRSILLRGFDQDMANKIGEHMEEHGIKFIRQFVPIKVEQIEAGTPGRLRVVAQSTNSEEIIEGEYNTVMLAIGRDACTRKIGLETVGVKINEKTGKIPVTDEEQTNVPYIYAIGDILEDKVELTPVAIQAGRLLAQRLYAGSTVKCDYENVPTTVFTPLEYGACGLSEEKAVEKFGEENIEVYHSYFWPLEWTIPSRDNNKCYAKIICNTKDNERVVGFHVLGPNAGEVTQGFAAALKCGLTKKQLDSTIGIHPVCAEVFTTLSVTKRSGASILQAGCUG
Description: After coating 96-well Maxi-Sorp ELISA plates (Nunc Inc, Roskilde, Denmark) with 100 μl gp120 in PBS (2 μg/ml), these were blocked with PBST (phosphate buffered saline, pH 7.4 with 0.05% Tween 20) as described before). The experiment was performed with two different set-ups for each compound, but each reaction mixture contained 1 μM Trx1 + 100 nM TrxR1 + 240 μM NADPH + 100 μM of the compounds, with auranofin as an inhibition control. In the first set-up (TrxR1 + Trx1), the reaction mixtures were pre-incubated for 15 min at 37°C in the absence of the compounds, which were added after the preincubation period. In the second set-up (TrxR1 + compounds), the reaction mixtures were exposed to the different compounds, but in the absence of Trx1, which was added after the 15 min pre-incubation period. The reaction mixtures were then added to the gp120-coated wells to allow the reduction of gp120, incubated for 15 min at 37°C and then washed four times with PBST to remove any unbound material. Subsequently, the wells were incubated with 2 μM biotin-maleimide for 30 min at room temperature, then washed and incubated with steptavidine-ALP (diluted 1:1000) at room temperature. […] The absorbance at 405 nm was measured using a microplate reader (Wallac Perkin-Elmer).

Cc1ccnc2c1NC(=O)c1cccnc1N2C1CC1 [nevirapine]
better inhibition efficacy with poly rC.dG than other templates [1]: ~ 10 fold | inhibition of luminescence signal (HIV infection of TZM-bl) (HIV-1 [2]; 10 μM): full inhibition | inhibition of RT polymerase activity [3]: pronounced, however not complete inhibitory activity

COC(=O)CCN(CCC(=O)OC)c1ccc([Te]c2ccc(N(CCC(=O)OC)CCC(=O)OC)cc2)cc1 [TE-10, bis[4-(N,N-di(2-carbomethoxyethyl)amino)phenyl]telluride]
IC50 (HeLa cells): 128 ± 29 µM | carry-over control: residual compound as cause of decreased infectivity (HIV-1 [4]): could not be explained by the presence of residual compound | IC50 ([5]; Human immunodeficiency virus 1, SUP-T1, 24 h, read-out: IC50 inhibition of syncytia formation): > 250 µM | decrease of protease activity (HIV-1 protease [6]): 50% | fold higher concentration for similar inhibition of luminescence signal than the other organotellurium compounds (HIV-1 [2]; TZM-bl): approximately 10 fold | Ratio IC50/EC50 HIV-1 (CEM) (HIV-1(IIIB) [7]; CEM cells): 16 | EC50 (HIV-1(IIIB) [7]; read-out: EC50 (range given)): 15 to 16 µM | EC50 (HIV-1(IIIB) [7]; read-out: EC50 HIV-1 (IIIB)): 16 ± 7.9 µM | Hydrophobicity [8]: Hydrophobic | EC50 (HIV-1(IIIB) [9]): 12 ± 4 µM | Ratio IC50/EC50 HIV-2 (CEM) (HIV-2(ROD); CEM cells): 17 | EC50 (HIV-2(ROD); Human immunodeficiency virus 2, CCRF-CEM, read-out: EC50 HIV-2 (ROD)): 15 ± 2.6 µM | IC50 (PHA-stimulated PBMCs): 19 ± 2 µM | EC50 (HIV-1(BaL)): 12 ± 10 µM | IC50 (CEM cells): ≥ 250 µM | p55 cleavage in viral particles (Western blot) (HIV-1 protease [10]): allow efficient p55 cleavage | EC50 (HIV-1(HE)): 6.6 ± 2.1 µM

CC(=O)OC[C@H]1O[C@@H]([S-])[C@H](OC(C)=O)[C@@H](OC(C)=O)[C@@H]1OC(C)=O.CCP(CC)CC.[Au+] [auranofin]
CD4 counts (HIV; HIV-infected patients ref 9): increased the CD4 counts | plasma HIV-RNA counts (HIV; HIV-infected patients treated for rheumatoid arthritis ref 9): lowered | inhibition of syncytium formation ([5]; cocultures of HuT-78/HIV-1(IIIB) and Sup-T1 cells, data not shown): failed to inhibit syncytium formation | reduction of gp120 disulfide bonds, % of DTT (set at 100%) (TrxR1): 6–10%
